Test results taken from publication PMC7318222, “A Family of Water‐Immiscible, Dipolar Aprotic, Diamide Solvents from Succinic Acid” (Chemsuschem, 2020).
Entries after “also recorded” stand apart in the source; their conditions may differ. Values belong to the molecule of their own block, whether it stands above or below them.

Columns and labels:
Miscibility with water = assay type: physicochemical; settings: this work
GR = biological target: T1, GR (Homo sapiens, UniProt P04150); test: GR-anti CALUX reporter gene assay (antagonistic mode); assay type: cell-based; design: key: –: no effect observed up to the highest test concentration; settings: PC20, 24 h exposure
T1 construct: expression construct for the full-length human receptor under investigation; expressed in transfected cells; host or cells: human U2-OS cells (ATCC HTB-96), stably transfected
T1 sequence (P04150 1-777): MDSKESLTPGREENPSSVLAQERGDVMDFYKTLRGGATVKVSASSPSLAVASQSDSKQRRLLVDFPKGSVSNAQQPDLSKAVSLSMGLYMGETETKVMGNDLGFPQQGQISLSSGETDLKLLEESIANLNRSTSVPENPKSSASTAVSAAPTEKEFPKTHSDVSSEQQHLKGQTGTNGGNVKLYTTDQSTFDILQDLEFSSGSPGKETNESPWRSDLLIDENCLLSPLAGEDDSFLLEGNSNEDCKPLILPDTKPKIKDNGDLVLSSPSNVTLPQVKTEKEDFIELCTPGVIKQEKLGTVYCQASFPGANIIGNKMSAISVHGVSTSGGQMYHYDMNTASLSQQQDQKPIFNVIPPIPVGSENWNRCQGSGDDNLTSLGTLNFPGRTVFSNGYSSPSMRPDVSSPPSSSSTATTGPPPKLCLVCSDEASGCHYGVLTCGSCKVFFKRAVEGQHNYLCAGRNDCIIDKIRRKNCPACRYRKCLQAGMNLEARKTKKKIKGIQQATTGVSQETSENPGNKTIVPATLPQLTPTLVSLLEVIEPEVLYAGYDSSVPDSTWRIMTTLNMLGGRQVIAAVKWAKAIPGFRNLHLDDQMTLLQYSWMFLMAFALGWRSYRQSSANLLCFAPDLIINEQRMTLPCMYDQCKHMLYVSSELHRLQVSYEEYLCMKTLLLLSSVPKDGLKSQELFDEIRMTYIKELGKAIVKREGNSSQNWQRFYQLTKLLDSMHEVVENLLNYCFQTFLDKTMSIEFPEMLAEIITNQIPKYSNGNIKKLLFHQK
Excerpt: nitroaniline ≥98.0% was purchased from Alfa Aeser. Cyrene was supplied by Circa group. N-butylpyrrolidinone was supplied by Eastman chemicals. […]
Polyarylethersulfone of 55,000 Da were obtained from INGE.BASF, Germany. The CALUX cell lines have been described previously.[1] They are based on human U2-OS cells (ATCC, HTB-96) stably transfected with an expression construct for the full-length human receptor under investigation, and a reporter construct consisting of multimerized responsive elements for the cognate receptor coupled to a minimal promoter element (TATA) and a luciferase gene. Cells were maintained as described previously,[2] using cell culture media and supplements from Fisher Scientific as described in the experimental procedures section. […]
In vitro reporter gene assays
The automated CALUX assays were carried out similarly as described earlier,[12] with some adaptations. In brief, the assay was performed in CO2 independent medium (Fisher Scientific, […]
with 30 µl cell suspension/well. After 24 h, exposure medium was prepared. A dilution series in 0.5log unit increments of each test compound (in DMSO) was added to a 96-wells plate containing assay medium (2% v/v). Of this exposure mixture, 30 µl was added to the assay plates containing the CALUX cells, resulting in a final DMSO concentration of 1%. Additionally, DMSO blanks and a full dose response curve of the relevant reference compound were included on each plate. All samples were tested in triplicate. The preparation of the compound dilution series as well as the exposure of the cells were performed on a Hamilton StarLET liquid handling robot coupled to a Cytomat incubator.
Directly after exposure, plates were sealed with non-breathing plate seals (Plate sealer, easy seal […]
After 24 h the exposure medium was removed using an EL406 washer-dispenser (BioTek) and 10 µl/well triton lysisbuffer was added by the EL406.
Subsequently, the luciferase signal was measured in a luminometer (InfinitePro coupled to a Connect Stacker, both TECAN). In order to be able to detect receptor antagonism, several assays were also performed in antagonistic mode. The assay procedure was as described above, with the only exception that the EC50 concentration of the reference agonist was present during the exposure.
The luminometer data was analysed as follows; the average of the triplicate wells was determined, […]

- Water misc. (Miscibility with water): no^[a]
- LEC GR‐anti (GR): –
SMILES: CCCCN(CC)C(=O)CCC(=O)N(CC)CCCC [EBSA, N,N′‐diethyl‐N,N′‐dibutylsuccindiamide]

- Water misc. (Miscibility with water): no^[a]
- LEC GR‐anti (GR): –
SMILES: CCCCN(C)C(=O)CCC(=O)N(C)CCCC [MBSA, N,N′‐dimethyl‐N,N′‐dibutylsuccindiamide]

- Water misc. (Miscibility with water): no^[a]
- LEC GR‐anti (GR): –
SMILES: CCCCN(CCCC)C(=O)CCC(=O)N(CCCC)CCCC [TBSA, N,N,N′,N′‐tetrabutylsuccindiamide]

The remaining lines, values behind:

SMILES: CCCCN1CCCC1=O [NBP, N‐Butylpyrrolidinone, reference compound]
- Water misc. (Miscibility with water): miscible; also recorded: yes^[a]
- LEC GR‐anti (GR): –

SMILES: CN1CCCC1=O [NMP, N‐methyl‐2‐pyrrolidone, reference compound]
- Water misc. (Miscibility with water): yes^[a]
